# In patent US7300946B2, “N-(substituted arylmethyl)-4-(disubstituted methyl) piperidines and pyridines” (Bayer CropScience AG, priority 2002, dated 2007):
# System: tobacco budworm (Heliothis virescens [Fabricius])
# Assay: surface-treated diet test against the tobacco budworm
# Format: in vivo
# Settings: tobacco budworm second instar larvae, surface-treated diet, 0.25 millimoles of candidate insecticide on the surface of the diet, five-day exposure; for Percent Mortality: compared to total number of insects infested; for Percent Growth Inhibition: inhibition of insect weight relative to untreated controls
# Outline: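 Wheat germ artificial diet surface-treated with 40 µL of 50 mM DMSO stock diluted 1:7 in 1:1 water/acetone (0.25 millimolar on diet), or sub-multiples for rate tests. One second-instar larva per well, 25° C, 60% RH, 5 days; percent weight inhibition vs DMSO controls and percent mortality.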
Structure (SMILES),Percent Mortality,Percent Growth Inhibition
O=C(Nc1ccc(Cl)cc1)OC(c1ccc(Cl)cc1)C1CCN(Cc2ccc(Oc3ccccn3)cc2)CC1 (stereo not drawn) [Compound 629],100%,100%
O=C(Nc1ccc(F)cc1)OC(c1ccc(Cl)cc1)C1CCN(Cc2ccc(Oc3ccccn3)cc2)CC1 (stereo not drawn) [Compound 630],100%,100%
O=C(Nc1cc(F)cc(F)c1)OC(c1ccc(Cl)cc1)C1CCN(Cc2ccc(Oc3ccccn3)cc2)CC1 (stereo not drawn) [Compound 631],100%,100%
Cc1cc(C)cc(NC(=O)OC(c2ccc(Cl)cc2)C2CCN(Cc3ccc(Oc4ccccn4)cc3)CC2)c1 (stereo not drawn) [Compound 632],100%,100%
COc1cc(NC(=O)OC(c2ccc(Cl)cc2)C2CCN(Cc3ccc(Oc4ccccn4)cc3)CC2)cc(OC)c1 (stereo not drawn) [Compound 633],50%,100%
O=C(Nc1cccc(C(F)(F)F)c1)OC(c1ccc(Cl)cc1)C1CCN(Cc2ccc(Oc3ccccn3)cc2)CC1 (stereo not drawn) [Compound 634],100%,100%
O=C(Nc1ccc(C(F)(F)F)cc1)OC(c1ccc(Cl)cc1)C1CCN(Cc2ccc(Oc3ccccn3)cc2)CC1 (stereo not drawn) [Compound 635],100%,100%
CN(C(=O)OC(c1ccc(Cl)cc1)C1CCN(Cc2ccc(Oc3ccccn3)cc2)CC1)c1ccc(C(F)(F)F)cc1 (stereo not drawn) [Compound 636],100%,100%
CCN(C(=O)OC(c1ccc(Cl)cc1)C1CCN(Cc2ccc(Oc3ccccn3)cc2)CC1)c1ccc(C(F)(F)F)cc1 (stereo not drawn) [Compound 637],100%,100%
COC(=O)c1cccc(NC(=O)OC(c2ccc(Cl)cc2)C2CCN(Cc3ccc(Oc4ccccn4)cc3)CC2)c1 (stereo not drawn) [Compound 638],100%,100%
O=C(Nc1ccc(Cl)cc1)OC(c1ccc(F)cc1)C1CCN(Cc2ccc(Oc3ccccn3)cc2)CC1 (stereo not drawn) [Compound 639],100%,100%
O=C(Nc1ccc(F)cc1)OC(c1ccc(F)cc1)C1CCN(Cc2ccc(Oc3ccccn3)cc2)CC1 (stereo not drawn) [Compound 640],100%,100%
O=C(Nc1cc(F)cc(F)c1)OC(c1ccc(F)cc1)C1CCN(Cc2ccc(Oc3ccccn3)cc2)CC1 (stereo not drawn) [Compound 641],100%,100%
O=C(Nc1cccc(C(F)(F)F)c1)OC(c1ccc(F)cc1)C1CCN(Cc2ccc(Oc3ccccn3)cc2)CC1 (stereo not drawn) [Compound 642],100%,100%
O=C(Nc1ccc(C(F)(F)F)cc1)OC(c1ccc(F)cc1)C1CCN(Cc2ccc(Oc3ccccn3)cc2)CC1 (stereo not drawn) [Compound 643],100%,100%
O=C(Nc1ccc(Cl)cc1)OC(c1ccc(Cl)c(Cl)c1)C1CCN(Cc2ccc(Oc3ccccn3)cc2)CC1 (stereo not drawn) [Compound 645],100%,100%
O=C(Nc1ccc(F)cc1)OC(c1ccc(Cl)c(Cl)c1)C1CCN(Cc2ccc(Oc3ccccn3)cc2)CC1 (stereo not drawn) [Compound 646],100%,100%
O=C(Nc1cc(F)cc(F)c1)OC(c1ccc(Cl)c(Cl)c1)C1CCN(Cc2ccc(Oc3ccccn3)cc2)CC1 (stereo not drawn) [Compound 647],100%,100%
COc1cccc(NC(=O)OC(c2ccc(Cl)c(Cl)c2)C2CCN(Cc3ccc(Oc4ccccn4)cc3)CC2)c1 (stereo not drawn) [Compound 648],–,100%
O=C(Nc1cccc(C(F)(F)F)c1)OC(c1ccc(Cl)c(Cl)c1)C1CCN(Cc2ccc(Oc3ccccn3)cc2)CC1 (stereo not drawn) [Compound 650],100%,100%
O=C(Nc1ccc(C(F)(F)F)cc1)OC(c1ccc(Cl)c(Cl)c1)C1CCN(Cc2ccc(Oc3ccccn3)cc2)CC1 (stereo not drawn) [Compound 651],100%,100%
O=C(Nc1ccc(Cl)cc1)OC(c1cccc(C(F)(F)F)c1)C1CCN(Cc2ccc(Oc3ccccn3)cc2)CC1 (stereo not drawn) [Compound 652],100%,100%
O=C(Nc1ccc(F)cc1)OC(c1cccc(C(F)(F)F)c1)C1CCN(Cc2ccc(Oc3ccccn3)cc2)CC1 (stereo not drawn) [Compound 653],100%,100%
O=C(Nc1cc(F)cc(F)c1)OC(c1cccc(C(F)(F)F)c1)C1CCN(Cc2ccc(Oc3ccccn3)cc2)CC1 (stereo not drawn) [Compound 654],100%,100%
O=C(Nc1cccc(C(F)(F)F)c1)OC(c1cccc(C(F)(F)F)c1)C1CCN(Cc2ccc(Oc3ccccn3)cc2)CC1 (stereo not drawn) [Compound 655],100%,100%

Structure (SMILES),Percent Mortality,Percent Growth Inhibition
O=C(Nc1ccc(C(F)(F)F)cc1)OC(c1cccc(C(F)(F)F)c1)C1CCN(Cc2ccc(Oc3ccccn3)cc2)CC1 (stereo not drawn) [Compound 656],100%,100%
O=C(Nc1ccccc1)OC(c1ccc(C(F)(F)F)cc1)C1CCN(Cc2ccc(Oc3ccccn3)cc2)CC1 (stereo not drawn) [Compound 657],100%,100%
CN(C(=O)OC(c1ccc(C(F)(F)F)cc1)C1CCN(Cc2ccc(Oc3ccccn3)cc2)CC1)c1ccccc1 (stereo not drawn) [Compound 658],0%,100%
O=C(NCc1ccccc1)OC(c1ccc(C(F)(F)F)cc1)C1CCN(Cc2ccc(Oc3ccccn3)cc2)CC1 (stereo not drawn) [Compound 659],50%,100%
CC(NC(=O)OC(c1ccc(C(F)(F)F)cc1)C1CCN(Cc2ccc(Oc3ccccn3)cc2)CC1)c1ccccc1 (stereo not drawn) [Compound 660],0%,98%
O=C(Oc1ccccc1)OC(c1ccc(C(F)(F)F)cc1)C1CCN(Cc2ccc(Oc3ccccn3)cc2)CC1 (stereo not drawn) [Compound 661],0%,91%
O=C(Nc1ccccc1Cl)OC(c1ccc(C(F)(F)F)cc1)C1CCN(Cc2ccc(Oc3ccccn3)cc2)CC1 (stereo not drawn) [Compound 662],100%,100%
O=C(NCc1ccccc1Cl)OC(c1ccc(C(F)(F)F)cc1)C1CCN(Cc2ccc(Oc3ccccn3)cc2)CC1 (stereo not drawn) [Compound 663],50%,100%
O=C(Nc1cccc(Cl)c1)OC(c1ccc(C(F)(F)F)cc1)C1CCN(Cc2ccc(Oc3ccccn3)cc2)CC1 (stereo not drawn) [Compound 664],100%,100%
O=C(Nc1ccc(Cl)cc1)OC(c1ccc(C(F)(F)F)cc1)C1CCN(Cc2ccc(Oc3ccccn3)cc2)CC1 (stereo not drawn) [Compound 665],0%,100%
O=C(Nc1ccc(Cl)cc1)OC(c1ccc(C(F)(F)F)cc1)C1CCN(Cc2ccc(Oc3ccccn3)cc2)CC1 (stereo not drawn) [Compound 666],100%,100%
FC(F)(F)c1ccc(C(OC(=S)Nc2ccc(Cl)cc2)C2CCN(Cc3ccc(Oc4ccccn4)cc3)CC2)cc1 (stereo not drawn) [Compound 667],100%,100%
O=C(NS(=O)(=O)c1ccc(Cl)cc1)OC(c1ccc(C(F)(F)F)cc1)C1CCN(Cc2ccc(Oc3ccccn3)cc2)CC1 (stereo not drawn) [Compound 668],0%,25%
O=C(Nc1ccc(Cl)cc1)OC(c1ccc(C(F)(F)F)cc1)C1CCN(Cc2ccc(Oc3cccc[n+]3[O-])cc2)CC1 (stereo not drawn) [Compound 669],100%,100%
N#Cc1cccnc1Oc1ccc(CN2CCC(C(OC(=O)Nc3ccc(Cl)cc3)c3ccc(C(F)(F)F)cc3)CC2)cc1 (stereo not drawn) [Compound 670],100%,100%
N#Cc1ccc(Oc2ccc(CN3CCC(C(OC(=O)Nc4ccc(Cl)cc4)c4ccc(C(F)(F)F)cc4)CC3)cc2)nc1 (stereo not drawn) [Compound 671],100%,100%
O=C(Nc1cccc(Br)c1)OC(c1ccc(C(F)(F)F)cc1)C1CCN(Cc2ccc(Oc3ccccn3)cc2)CC1 (stereo not drawn) [Compound 672],100%,100%
O=C(Nc1ccc(Br)cc1)OC(c1ccc(C(F)(F)F)cc1)C1CCN(Cc2ccc(Oc3ccccn3)cc2)CC1 (stereo not drawn) [Compound 673],100%,100%
O=C(Nc1cccc(F)c1)OC(c1ccc(C(F)(F)F)cc1)C1CCN(Cc2ccc(Oc3ccccn3)cc2)CC1 (stereo not drawn) [Compound 674],100%,100%
O=C(Nc1ccc(F)cc1)OC(c1ccc(C(F)(F)F)cc1)C1CCN(Cc2ccc(Oc3ccccn3)cc2)CC1 (stereo not drawn) [Compound 675],100%,100%
O=C(NCc1ccc(F)cc1)OC(c1ccc(C(F)(F)F)cc1)C1CCN(Cc2ccc(Oc3ccccn3)cc2)CC1 (stereo not drawn) [Compound 676],100%,100%
O=C(Nc1ccc(I)cc1)OC(c1ccc(C(F)(F)F)cc1)C1CCN(Cc2ccc(Oc3ccccn3)cc2)CC1 (stereo not drawn) [Compound 677],100%,100%
O=C(NCc1ccc(Cl)cc1Cl)OC(c1ccc(C(F)(F)F)cc1)C1CCN(Cc2ccc(Oc3ccccn3)cc2)CC1 (stereo not drawn) [Compound 678],100%,100%
O=C(Nc1ccc(F)cc1F)OC(c1ccc(C(F)(F)F)cc1)C1CCN(Cc2ccc(Oc3ccccn3)cc2)CC1 (stereo not drawn) [Compound 679],100%,100%
O=C(Nc1cc(F)cc(F)c1)OC(c1ccc(C(F)(F)F)cc1)C1CCN(Cc2ccc(Oc3ccccn3)cc2)CC1 (stereo not drawn) [Compound 680],17%,100%
